The text below walks through data of patent US11952384B2, “Anti-tumor compound and preparation method and use thereof” (DUALITY BIOLOGICS (SUZHOU) CO., LTD., priority 2020, dated 2024).

The target in series [1] is T1, BCRP (Homo sapiens, UniProt Q9UNQ0).
T1 sequence (Q9UNQ0 1-655): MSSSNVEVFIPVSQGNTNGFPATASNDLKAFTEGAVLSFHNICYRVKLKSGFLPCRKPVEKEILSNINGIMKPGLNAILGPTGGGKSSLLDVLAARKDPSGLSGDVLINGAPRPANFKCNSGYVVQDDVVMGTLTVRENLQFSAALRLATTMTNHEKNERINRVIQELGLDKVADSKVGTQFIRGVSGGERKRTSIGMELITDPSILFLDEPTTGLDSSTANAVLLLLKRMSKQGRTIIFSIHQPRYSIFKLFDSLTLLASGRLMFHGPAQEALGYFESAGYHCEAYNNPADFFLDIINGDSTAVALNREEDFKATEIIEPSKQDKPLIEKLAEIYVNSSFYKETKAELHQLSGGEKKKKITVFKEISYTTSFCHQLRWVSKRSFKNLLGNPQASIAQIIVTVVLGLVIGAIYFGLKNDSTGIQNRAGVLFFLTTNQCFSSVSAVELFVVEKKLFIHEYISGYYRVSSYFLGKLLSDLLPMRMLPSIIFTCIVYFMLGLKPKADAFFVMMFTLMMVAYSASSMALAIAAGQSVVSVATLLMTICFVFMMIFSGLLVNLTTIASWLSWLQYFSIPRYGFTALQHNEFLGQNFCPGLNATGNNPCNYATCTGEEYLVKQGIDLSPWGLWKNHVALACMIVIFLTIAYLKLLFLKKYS
The following applies: Caco-2.
Protocol: (§1) To investigate whether the compounds of the present invention is a substrate for efflux transporters P-gp and BCRP in a Caco-2 cell model, thereby providing preclinical basis for analyzing the drug-drug interaction in pharmacokinetics.
(§2) • 1) Cell culture medium was added to each well of the Transwell. The HTS Transwell plate was incubated under conditions of 37° C. and 5% CO2 for 1 h prior to cell inoculation. • 2) Caco-2 cells were diluted with culture medium and the cell suspension was dispensed into filter wells of the 96-well HTS Transwell plate. […] The cell culture medium was changed periodically. • 3) Monolayer cell resistance was measured using the Millicell Epithelial Volt-Ohm detection system. The resistance of each well was recorded. After all wells were measured, the Transwell plate was put back into the incubator. TEER of each well was calculated according to the formula. The TEER value of each well should be greater than 230 ohm·cm^2. […] Preparation for Transporter Test • 1) The Caco-2 plate was taken out from the incubator. The monolayer cells were washed with pre-heated HBSS twice. The plate was then incubated at 37° C. for 30 min. • 2) Stock solutions of the compounds were prepared in DMSO and diluted with HBSS to obtain working solutions. Digoxin was used as a reference substrate for P-gp and rosuvastatin was used as a reference substrate for BCRP. Propranolol was used as a high permeability marker. • 3) The working solution (without inhibitor) was added to the Transwell insert (apical compartment) to determine the rate of drug transport in the apical to basolateral direction. The transfer buffer was added to the wells in the receiver plate (basolateral compartment). The working solution (without inhibitor) was added to the receiver plate wells (basolateral compartment) to determine the rate of drug transport in the basolateral to apical direction. The Transwell insert (apical compartment) was filled with the transport buffer. PSC833 was added to the apical and basolateral compartments to determine the rate of drug transport in the presence of P-gp inhibitors. • 4) The sample was transferred from the working solution to the quenching solution, and a sample with a time of 0 was prepared. The Transwell plate was incubated under conditions of 37° C. and 5% CO2 for 2 h. • 5) At the end of the transport cycle, the samples were transferred from the apical and basolateral wells into a new 96-well plate. Cold acetonitrile or methanol containing the appropriate internal standard (IS) was added to each well of the plate. The plate was vortexed for 10 min. The samples were centrifuged. The supernatant of an aliquot was mixed with an appropriate amount of ultrapure water (depending on the LC-MS/MS signal response and peak shape) prior to the LC-MS/MS analysis. • 6) The stock solution of lucifer yellow in DMSO was prepared and diluted with HBSS to determine the amount of lucifer yellow leakage after a 2-hour transport period. The lucifer yellow solution was added to the apical compartment. HBSS was added to the basolateral compartment. The plate was incubated at 37° C. for 30 min, and a certain amount of the solution was directly taken from the apical and basolateral wells and transferred to a new 96-well plate. The lucifer yellow fluorescence was measured in a fluorescence plate reader with 485 nm excitation and 530 nm emission (to monitor monolayer integrity).
(§3) Data were calculated using Microsoft Excel. The percentage of the compound remaining at each time point was estimated by determining the peak area ratio from the extracted ion chromatogram.
(§4) For drug transport analysis in the Caco-2 cell model, the apparent permeability coefficient (Papp) can be calculated according to the following formula, in cm/s:
(§5) [formula] • wherein the concentration C is in nM, the volume V is in μL, the time T is in s, and the area S is in cm^2.
(§6) The recovery rate is calculated according to the following formula:

Another series has as its system JIMT-1 cells. The experiment in a line: Inhibition of in vitro proliferation of tumor cells by compounds (CTG, 6 days). It counts as cell-based. To be noted: small molecule fragments, 6 days of culture, CTG, read-out: JIMT-1 IC50. The essentials: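 JIMT-1 cells in RPMI-1640/10% FBS plated at 6×10^4 cells/mL, left 18 h, then exposed to 8 compound concentrations (0.1–300 nM) in duplicate for 6 days at 37° C. Viability by CellTiter-Glo luminescence; IC50 derived.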

The subject of the next series is NCI-N87 cells. The series is described as above. It counts as cell-based. To be noted: small molecule fragments, 6 days of culture, CTG, read-out: NCI-N87 IC50. The method, boiled down: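 NCI-N87 cells in RPMI-1640 with 10% FBS, plated and allowed 18 h attachment, then exposed in duplicate to 8 concentrations from 300 nM to 0.1 nM for 6 days at 37 °C, 5% CO2. Viability read by CellTiter-Glo luminescence; IC50 derived from the dose-response.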

Series [2] concerns the target T1, BCRP. Kind of series: Study on transporter substrates in Caco-2 cell model. The following applies: Caco-2; for efflux ratio at 2 h / recovery at 2 h: human; for efflux ratio at 2 h: Caco-2, Efflux ratio. (In general: Caco-2 monolayers are a common model of the intestinal barrier.)
Protocol: as §1, §2, §3, §4, §5, §6
Setting [3] is: Homo sapiens, JIMT-1, 144 h, Table 1, Test Example 2.1.
Setting [4] is: Homo sapiens, JIMT-1, 144 h, Table 2 (untitled), Test Example 2.2.
The mark [5] stands for this setting: Homo sapiens, NCI-N87, 144 h, Table 1, Test Example 2.1.
The mark [6] stands for this setting: Homo sapiens, NCI-N87, 144 h, Table 2 (untitled), Test Example 2.2.
[7] abbreviates: Caco-2, Recovery rate (%) AP-BL, KO143 −.
[8] abbreviates: Caco-2, Recovery rate (%) BL-AP, KO143 −.
The mark [9] stands for this setting: Caco-2, with KO143 (concentration not stated), Recovery rate (%) AP-BL, KO143 +.
Setting [10] is: Caco-2, with KO143 (concentration not stated), Recovery rate (%) BL-AP, KO143 +.
[11] abbreviates: Table 2 (untitled), Test Example 2.2.

Read-outs that look alike come from different tables or passages of the source.

With `CC[C@@]1(O)C(=O)OCc2c1cc1n(c2=O)Cc2c-1nc1cc(F)c(C)c3c1c2[C@@H](NC(=O)[C@H]1C[C@H](O)C1)CC3` [P-II-4, (1r,3S)-N-((1S,9S)-9-ethyl-5-fluoro-9-hydroxy-4-methyl-10,13-dioxo-2,3,9,10,13,15-hexahydro-1H,12H-benzo[de]pyrano[3′,4′:6,7]indolizino[1,2-b]quinolin-1-yl)-3-hydroxycyclobutane-1-carboxamide], on BCRP [1], the “Papp (A-B) (10^−6, cm/s)” value is on record as 0.06 10^−6, cm/s. Further, the “Papp (B-A) (10^−6, cm/s)” value at BCRP [1] is listed as 1.65 10^−6, cm/s. Moreover, the IC50 – broadly, the concentration at which inhibition is half-maximal – stood at 6.64 nM in the series on JIMT-1 cells (setting [3]), 6.6 nM with JIMT-1 cells (setting [4]), 8.03 nM in the series on NCI-N87 cells (setting [5]) and 8.03 nM in the series with NCI-N87 cells (setting [6]). Besides, the efflux ratio – broadly, a quotient of directional permeabilities that is used to spot active efflux – at 2 h on BCRP [2] (KO143 −) stood at 36.1. For the same compound, the recovery at 2 h is 63.8% on BCRP [2] (setting [7]), 64% at BCRP [2] (setting [8]), 65% at BCRP [2] (setting [9]) and 63% on BCRP [2] (setting [10]).

Take `CC[C@@]1(O)C(=O)OCc2c1cc1n(c2=O)Cc2c-1nc1cc(F)c(C)c3c1c2[C@@H](NC(=O)C1CCC(O)CC1)CC3` (single isomer, unassigned) [P-II-2]: on BCRP [1], the “Papp (A-B) (10^−6, cm/s)” value is on record as 0.07 10^−6, cm/s. For the same compound, at BCRP [1], the “Papp (B-A) (10^−6, cm/s)” value is listed as 1.70 10^−6, cm/s. The IC50 was determined as 17 nM in the series with JIMT-1 cells (Table 1, Test Example 2.1); 17.2 nM in the series with JIMT-1 cells (setting [11]); 22.1 nM in the series on NCI-N87 cells (Table 1, Test Example 2.1); 22.1 nM in the series on NCI-N87 cells (setting [11]). Also, the “Recovery rate (%) AP-BL” value on BCRP [2] (KO143 +) is reported as 62.42%; at BCRP [2] (KO143 −), 59.32%. The “Recovery rate (%) BL-AP” value at BCRP [2] (KO143 +) came out at 62.86%; on BCRP [2] (KO143 −), 58.51%. Besides, the Efflux ratio at BCRP [2] (KO143 −) is on record as 30.08.

Turning to `CC[C@@]1(O)C(=O)OCc2c1cc1n(c2=O)Cc2c-1nc1cc(F)c(C)c3c1c2[C@@H](NC(=O)[C@H]1C[C@@H](O)C1)CC3` [P-II-3, (1s,3R)-N-((1S,9S)-9-ethyl-5-fluoro-9-hydroxy-4-methyl-10,13-dioxo-2,3,9,10,13,15-hexahydro-1H,12H-benzo[de]pyrano[3′,4′:6,7]indolizino[1,2-b]quinolin-1-yl)-3-hydroxycyclobutane-1-carboxamide], the “Papp (A-B) (10^−6, cm/s)” value at BCRP [1] was 0.20 10^−6, cm/s. Moreover, the “Papp (B-A) (10^−6, cm/s)” value on BCRP [1] is on record as 5.52 10^−6, cm/s. The IC50 came to 5 nM with JIMT-1 cells (setting [3]), 5 nM in the series with JIMT-1 cells (setting [4]), 9.56 nM with NCI-N87 cells (setting [5]) and 9.56 nM with NCI-N87 cells (setting [6]). Further, the efflux ratio at 2 h on BCRP [2] (KO143 −) turned out to be 28.7. For the same compound, the recovery at 2 h worked out at 80.9% at BCRP [2] (setting [7]), 77.5% on BCRP [2] (setting [8]), 76.9% on BCRP [2] (setting [9]) and 76.5% at BCRP [2] (setting [10]).

On to `CC[C@@]1(O)C(=O)OCc2c1cc1n(c2=O)Cc2c-1nc1cc(F)c(C)c3c1c2[C@@H](NC(=O)C[C@@H](C)O)CC3` [P-III-20, (R)—N-((1S,9S)-9-ethyl-5-fluoro-9-hydroxy-4-methyl-10,13-dioxo-2,3,9,10,13,15-hexahydro-1H,12H-benzo[de]pyrano[3′,4′: 6,7]indolizino[1,2-b]quinolin-1-yl)-3-hydroxybutanamide], for which the IC50 came out at 4.35 nM in the series on JIMT-1 cells (setting [3]); 4.35 nM in the series on JIMT-1 cells (Homo sapiens, JIMT-1, 144 h, Table 3, Test Example 2.3); 5.89 nM with NCI-N87 cells (setting [5]); 5.89 nM with NCI-N87 cells (Homo sapiens, NCI-N87, 144 h, Table 3, Test Example 2.3); 5.9 nM in the series on NCI-N87 cells (Homo sapiens, NCI-N87, 144 h, Table 4, Test Example 2.4).

Consider `CC[C@@]1(O)C(=O)OCc2c1cc1n(c2=O)Cc2c-1nc1cc(F)c(C)c3c1c2[C@@H](NC(=O)C1CCC(O)CC1)CC3` (single isomer, unassigned) [P-II-1], for which the “Papp (A-B) (10^−6, cm/s)” value at BCRP [1] is listed as 0.20 10^−6, cm/s. The “Papp (B-A) (10^−6, cm/s)” value at BCRP [1] was 5.52 10^−6, cm/s. Also, the IC50 with JIMT-1 cells (Table 1, Test Example 2.1) was 8.47 nM; in the series on JIMT-1 cells (setting [11]), 8.5 nM; in the series with NCI-N87 cells (setting [5]), 18.5 nM; with NCI-N87 cells (setting [6]) it was 18.5 nM. The “Recovery rate (%) AP-BL” value on BCRP [2] (KO143 −) was found to be 80.87%. For the same compound, the efflux ratio at 2 h on BCRP [2] (KO143 −) is 28.7. Also, the recovery at 2 h stood at 77.5% on BCRP [2] (setting [8]), 76.9% at BCRP [2] (setting [9]) and 76.5% on BCRP [2] (setting [10]).
